Holding throughout (format): cell-based
Data set [1] relates to Escherichia coli ATCC 25922. The conditions noted are these: ATCC 25922. Summed up: (§1)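 The MIC is the lowest peptide concentration, in μg/mL, with no visible growth after 18-20 h incubation at 35 °C. Serial two-fold peptide dilutions in water with 0.002% P-80 final were added to bacteria in cation-adjusted MHII broth, about 5×10^5 CFU/mL, following modified CLSI microdilution.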

The subject of data set [2] is Klebsiella pneumoniae SSI3010. The conditions noted are these: SSI3010. The gist of the method:
as §1

The test system of data set [3] is Escherichia coli MCR-1 Af 45. The conditions noted are these: MCR-1 Af 45. Summed up: as §1
The subject of data set [4] is human red blood cells (hRBC). Conditions: red cells of human, 1 h, 200 μg/mL. The gist of the method: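 Peptides at 200 μg/mL incubated 1 h at 37 °C with 20% (v/v) washed human RBC, shaking. Hemolysis from supernatant OD540, expressed as percent of 2.5% Triton X-100 lysis, with PBS as 0%.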

Where a SMILES comes first, the peptide text is derived from it. Bridges are numbered along the chain shown (N, C = ends). [ ]: non-standard residue; d: D form. The star is where a group is joined. Val(Nα-amidino) = CC(C)[C@H](NC(=N)N)C(=O)*; Hyp = O=C(O)[C@@H]1C[C@@H](O)CN1; Cit = NC(=O)NCCC[C@H](N)C(=O)O; Pen = CC(C)(S)[C@H](N)C(=O)O; dDab = NCC[C@@H](N)C(=O)O; Orn = NCCC[C@H](N)C(=O)O; Dab = NCC[C@H](N)C(=O)O

The text below walks through data of patent US20240336654A1, “ANTIMICROBIAL PEPTIDOMIMETICS” (SPEXIS AG, priority 2021, published 2024).

As for `CC[C@H](C)[C@H](NC(=O)[C@@H]1C[C@@H](O)CN1C(=O)[C@@H](N)C(C)C)C(=O)N[C@@H]1C(=O)N[C@@H](Cc2ccc(O)cc2)C(=O)N[C@@H](CO)C(=O)N[C@@H](CC(N)=O)C(=O)N[C@@H](CCCNC(=N)N)C(=O)N[C@@H](CCN)C(=O)N[C@@H]([C@@H](C)O)C(=O)N[C@H](CCN)C(=O)N[C@@H](CCCCN)C(=O)N[C@@H](CCN)C(=O)N[C@@H](CCCN)C(=O)N[C@H](C(=O)N[C@@H](Cc2ccc(O)cc2)C(=O)O)CSSC1(C)C` [Example 64, Val-Hyp-Ile-Pen-Tyr-Ser-Asn-Arg-Dab-Thr-^DDab-Lys-Dab-Orn-Cys-Tyr] (H-V[Hyp]I[Pen]YSNR[Dab]T[dDab]K[Dab][Orn]CY-OH; disulfide 4-15), the “Escherichia coli ATCC 25922 MIC” value in data set [1] amounted to 0.0625 µg/mL. For the same compound, the “Klebsiella pneumoniae SSI3010 MIC” value in data set [2] amounted to 0.125 µg/mL. The “Escherichia coli MCR-1 Af45 MIC” value in data set [3] was 0.0625 µg/mL. In addition, in data set [4], the “Hemolysis at 0.2 g/L” value is reported as <1%.
Take `CC[C@H](C)[C@H](NC(=O)[C@@H]1C[C@@H](O)CN1C(=O)[C@@H](N)C(C)C)C(=O)N[C@@H]1C(=O)N[C@@H](Cc2ccc(O)cc2)C(=O)N[C@@H](CO)C(=O)N[C@@H](CC(N)=O)C(=O)N[C@@H](CCCNC(=N)N)C(=O)N[C@@H](CCN)C(=O)N[C@@H](CC(N)=O)C(=O)N[C@H](CCN)C(=O)N[C@@H](CCCCN)C(=O)N[C@@H](CCN)C(=O)N[C@@H](CCN)C(=O)N[C@H](C(=O)N[C@@H](Cc2ccc(O)cc2)C(=O)O)CSSC1(C)C` [Example 31, Val-Hyp-Ile-Pen-Tyr-Ser-Asn-Arg-Dab-Asn-^DDab-Lys-Dab-Dab-Cys-Tyr] (H-V[Hyp]I[Pen]YSNR[Dab]N[dDab]K[Dab][Dab]CY-OH; disulfide 4-15): the “Escherichia coli ATCC 25922 MIC” value in data set [1] was 0.125 µg/mL. Besides, the “Klebsiella pneumoniae SSI3010 MIC” value in data set [2] is 0.25 µg/mL. For the same compound, in data set [3], the “Escherichia coli MCR-1 Af45 MIC” value came to 0.125 µg/mL. For the same compound, in data set [4], the “Hemolysis at 0.2 g/L” value was <1%.
Turning to `CC[C@H](C)[C@H](NC(=O)[C@@H]1C[C@@H](O)CN1C(=O)[C@@H](N)C(C)C)C(=O)N[C@@H]1C(=O)N[C@@H](Cc2ccc(O)cc2)C(=O)N[C@@H](CO)C(=O)N[C@@H](CC(N)=O)C(=O)N[C@@H](CCCNC(=N)N)C(=O)N[C@@H](C)C(=O)N[C@@H]([C@@H](C)O)C(=O)N[C@H](CCN)C(=O)N[C@@H](CCCCN)C(=O)N[C@@H](CCN)C(=O)N[C@@H](CCN)C(=O)N[C@H](C(=O)N[C@@H](Cc2ccc(O)cc2)C(=O)O)CSSC1(C)C` [Example 25, Val-Hyp-Ile-Pen-Tyr-Ser-Asn-Arg-Ala-Thr-^DDab-Lys-Dab-Dab-Cys-Tyr] (H-V[Hyp]I[Pen]YSNRAT[dDab]K[Dab][Dab]CY-OH; disulfide 4-15), in data set [1], the “Escherichia coli ATCC 25922 MIC” value amounted to 0.5 µg/mL. In addition, the “Klebsiella pneumoniae SSI3010 MIC” value in data set [2] came out at 1 µg/mL. In addition, the “Escherichia coli MCR-1 Af45 MIC” value in data set [3] came out at 0.5 µg/mL. In data set [4], the “Hemolysis at 0.2 g/L” value was <1%.
`CC[C@H](C)[C@H](NC(=O)[C@@H]1CCCN1C(=O)[C@@H](N)C(C)C)C(=O)N[C@@H]1C(=O)N[C@@H](Cc2ccc(O)cc2)C(=O)N[C@@H](CO)C(=O)N[C@@H](CC(N)=O)C(=O)N[C@@H](CCCNC(=N)N)C(=O)N[C@@H](CCN)C(=O)N[C@@H]([C@@H](C)O)C(=O)N[C@H](CCN)C(=O)N[C@@H](CCCCN)C(=O)N[C@@H](CCN)C(=O)N[C@@H](CCN)C(=O)N[C@H](C(=O)N[C@@H](Cc2ccc(O)cc2)C(=O)O)CSSC1(C)C` [Example 4, Val-Pro-Ile-Pen-Tyr-Ser-Asn-Arg-Dab-Thr-^DDab-Lys-Dab-Dab-Cys-Tyr] (H-VPI[Pen]YSNR[Dab]T[dDab]K[Dab][Dab]CY-OH; disulfide 4-15): in data set [1], the “Escherichia coli ATCC 25922 MIC” value amounted to 0.0625 µg/mL. Besides, in data set [2], the “Klebsiella pneumoniae SSI3010 MIC” value was found to be 0.125 µg/mL. For the same compound, the “Escherichia coli MCR-1 Af45 MIC” value in data set [3] was found to be 0.0625 µg/mL. For the same compound, the “Hemolysis at 0.2 g/L” value in data set [4] is recorded as <1%.
`CC[C@H](C)[C@H](NC(=O)[C@@H]1C[C@@H](O)CN1C(=O)[C@@H](N)C(C)C)C(=O)N[C@@H]1C(=O)N[C@@H](Cc2ccc(O)cc2)C(=O)N[C@@H](CO)C(=O)N[C@@H](CC(N)=O)C(=O)N[C@@H](CCCNC(=N)N)C(=O)N[C@@H](CCN)C(=O)N[C@@H]([C@@H](C)O)C(=O)N[C@H](CCN)C(=O)N[C@@H](CCCCN)C(=O)N[C@@H](CCCNC(N)=O)C(=O)N[C@@H](CCN)C(=O)N[C@H](C(=O)N[C@@H](Cc2ccc(O)cc2)C(=O)O)CSSC1(C)C` [Example 53, Val-Hyp-Ile-Pen-Tyr-Ser-Asn-Arg-Dab-Thr-^DDab-Lys-Cit-Dab-Cys-Tyr] (H-V[Hyp]I[Pen]YSNR[Dab]T[dDab]K[Cit][Dab]CY-OH; disulfide 4-15): the “Escherichia coli ATCC 25922 MIC” value in data set [1] was 0.25 µg/mL. The “Klebsiella pneumoniae SSI3010 MIC” value in data set [2] amounted to 1 µg/mL. Further, in data set [3], the “Escherichia coli MCR-1 Af45 MIC” value is 0.25 µg/mL. Further, the “Hemolysis at 0.2 g/L” value in data set [4] is recorded as <1%.
For the compound `CC[C@H](C)[C@H](NC(=O)[C@@H]1C[C@@H](O)CN1C(=O)[C@@H](NC(=N)N)C(C)C)C(=O)N[C@@H]1C(=O)N[C@@H](Cc2ccc(O)cc2)C(=O)N[C@@H](CCN)C(=O)N[C@@H](CC(N)=O)C(=O)N[C@@H](CCCNC(=N)N)C(=O)N[C@@H](CCN)C(=O)N[C@@H]([C@@H](C)O)C(=O)N[C@H](CCN)C(=O)N[C@@H](CCCN)C(=O)N[C@@H]([C@@H](C)O)C(=O)N[C@@H](CCN)C(=O)N[C@H](C(=O)N[C@@H](Cc2ccc(O)cc2)C(=O)O)CSSC1(C)C` [Example 121, Gua-Val-Hyp-Ile-Pen-Tyr-Dab-Asn-Arg-Dab-Thr-^DDab-Orn-Thr-Dab-Cys-Tyr] ({Val(Nα-amidino)}-[Hyp]I[Pen]Y[Dab]NR[Dab]T[dDab][Orn]T[Dab]CY-OH; disulfide 3-14), in data set [1], the “Escherichia coli ATCC 25922 MIC” value was 0.0625 µg/mL. In addition, the “Klebsiella pneumoniae SSI3010 MIC” value in data set [2] stood at 0.125 µg/mL. Besides, the “Escherichia coli MCR-1 Af45 MIC” value in data set [3] was determined as 0.0625 µg/mL. The “Hemolysis at 0.2 g/L” value in data set [4] is <1%.
Regarding `CC[C@H](C)[C@H](NC(=O)[C@@H]1C[C@@H](O)CN1C(=O)[C@@H](N)C(C)C)C(=O)N[C@@H]1C(=O)N[C@@H](Cc2ccc(O)cc2)C(=O)N[C@@H](CO)C(=O)N[C@@H](CC(N)=O)C(=O)N[C@@H](CCCNC(=N)N)C(=O)N[C@@H](CCN)C(=O)N[C@@H]([C@@H](C)O)C(=O)N[C@H](CCN)C(=O)N[C@@H](CCCCN)C(=O)N[C@@H](CCN)C(=O)N[C@@H](CCN)C(=O)N[C@H](C(=O)N[C@@H](Cc2c[nH]c3ccccc23)C(=O)O)CSSC1(C)C` [Example 66, Val-Hyp-Ile-Pen-Tyr-Ser-Asn-Arg-Dab-Thr-^DDab-Lys-Dab-Dab-Cys-Trp] (H-V[Hyp]I[Pen]YSNR[Dab]T[dDab]K[Dab][Dab]CW-OH; disulfide 4-15), in data set [1], the “Escherichia coli ATCC 25922 MIC” value came out at 0.0625 µg/mL. In addition, the “Klebsiella pneumoniae SSI3010 MIC” value in data set [2] worked out at 0.125 µg/mL. For the same compound, in data set [3], the “Escherichia coli MCR-1 Af45 MIC” value is 0.0625 µg/mL. The “Hemolysis at 0.2 g/L” value in data set [4] is given as <1%.
`CC[C@H](C)[C@@H]1NC(=O)[C@H](Cc2ccc(O)cc2)NC(=O)[C@@H](NC(=O)[C@@H](NC(=O)[C@@H]2C[C@@H](O)CN2C(=O)[C@@H](N)C(C)C)[C@@H](C)CC)C(C)(C)SSC[C@@H](C(=O)N[C@@H](Cc2ccc(O)cc2)C(=O)O)NC(=O)[C@H](CCN)NC(=O)[C@H](CCCNC(=N)N)NC(=O)[C@H](CCCCN)NC(=O)[C@@H](CCN)NC(=O)[C@H]([C@@H](C)O)NC(=O)[C@H](CCN)NC(=O)[C@H](CCCNC(=N)N)NC(=O)[C@H](CC(N)=O)NC1=O` [Example 16, Val-Hyp-Ile-Pen-Tyr-Ile-Asn-Arg-Dab-Thr-^DDab-Lys-Arg-Dab-Cys-Tyr] (H-V[Hyp]I[Pen]YINR[Dab]T[dDab]KR[Dab]CY-OH; disulfide 4-15): in data set [1], the “Escherichia coli ATCC 25922 MIC” value amounted to 0.375 µg/mL. The “Klebsiella pneumoniae SSI3010 MIC” value in data set [2] is 0.5 µg/mL. In data set [3], the “Escherichia coli MCR-1 Af45 MIC” value was 0.25 µg/mL. For the same compound, in data set [4], the “Hemolysis at 0.2 g/L” value was <1%.
The corresponding values for `CC[C@H](C)[C@H](NC(=O)[C@@H]1C[C@@H](OC)CN1C(=O)[C@@H](N)C(C)C)C(=O)N[C@@H]1C(=O)N[C@@H](Cc2ccc(O)cc2)C(=O)N[C@@H]([C@@H](C)O)C(=O)N[C@@H](CC(N)=O)C(=O)N[C@@H](CCCNC(=N)N)C(=O)N[C@@H](CCN)C(=O)N[C@@H]([C@@H](C)O)C(=O)N[C@H](CCN)C(=O)N[C@@H](CCCCN)C(=O)N[C@@H](CCN)C(=O)N[C@@H](CCN)C(=O)N[C@H](C(=O)N[C@@H](Cc2ccc(O)cc2)C(=O)O)CSSC1(C)C` [Example 6, Val-Pro((4R)OMe)-Ile-Pen-Tyr-Thr-Asn-Arg-Dab-Thr-^DDab-Lys-Dab-Dab-Cys-Tyr] (H-V[Hyp](Me)I[Pen]YTNR[Dab]T[dDab]K[Dab][Dab]CY-OH; disulfide 4-15) are 0.125 µg/mL, 0.25 µg/mL, 0.125 µg/mL and <1%.
The like results for `CC[C@H](C)[C@H](NC(=O)[C@@H]1C[C@@H](O)CN1C(=O)[C@@H](N)C(C)C)C(=O)N[C@@H]1C(=O)N[C@@H](Cc2ccc(O)cc2)C(=O)N[C@@H](CCN)C(=O)N[C@@H](CC(N)=O)C(=O)N[C@@H](CCCNC(=N)N)C(=O)N[C@@H](CCN)C(=O)N[C@@H]([C@@H](C)O)C(=O)N[C@H](CCN)C(=O)N[C@@H](CCCCN)C(=O)N[C@@H]([C@@H](C)O)C(=O)N[C@@H](CCCNC(N)=O)C(=O)N[C@H](C(=O)N[C@@H](Cc2ccc(O)cc2)C(=O)O)CSSC1(C)C` [Example 49, Val-Hyp-Ile-Pen-Tyr-Dab-Asn-Arg-Dab-Thr-^DDab-Lys-Thr-Cit-Cys-Tyr] (H-V[Hyp]I[Pen]Y[Dab]NR[Dab]T[dDab]KT[Cit]CY-OH; disulfide 4-15) were, in that order, 0.25 µg/mL, 0.5 µg/mL, 0.25 µg/mL and <1%.
